Tests used:
rβ-gal CHO cells [1] = assay: rβ-Gal assay (ONPG) in lysates of rβ-gal CHO cells; assay type: cell-based, Chinese hamster; conditions: for level of rβ-gal expression versus CD CHO control: Example 14, 25 μg/mL in CD CHO medium, FIG. 14
Method: rβ-Galactosidase (rβ-gal or rβeta-Gal) was measured in cell lysates using a modification of the method described by Hall et al., J. Mol. Appl. Gen. 2:101-109 (1983) and Miller, Experiments in Molecular Genetics, Cold Spring Harbor Laboratory (1972). Briefly, a 2.0 ml sample of cell suspension was collected from each sample and subjected to two freeze-thaw cycles, centrifuged at 100× g for 4 minutes, and the supernatant was saved for rβ-Galactosidase quantitation. 100 μl of each supernatant sample was added to 1.0 ml Z buffer (0.06 M Na2HPO4, 0.04M NaH2PO4, 0.01M KCl, 0.01M MgSO4-7H2O, 0.05M β-mercaptoethanol, pH 7.0), followed by 200 μl of o-nitrophenyl-p-D-galactoside (ONPG, 4.0 mg/ml in dH20) and incubated at 37° C. for 120 minutes. The reaction was halted by addition of 500 μl stop buffer (1M Na2CO3) and absorbance at 420 nm was read against a blank of the appropriate medium. Activity was calculated using the following formulae:
[formula] Units rβ-galactosidase/# of cells=Activity/cell 2.

rβ-gal CHO cells [2] = assay: Growth (cell density) of rβ-gal CHO cells in suspension culture; assay type: cell-based, Chinese hamster; conditions: for cell growth and viability versus CD CHO control: Example 14, 25 μg/mL in CD CHO medium, FIG. 13
Method: To establish a recombinant β-galactosidase (rβ-Gal) CHO cell line, CHO cells deficient in dihydrofolate reductase (DHFR^−) were obtained from ATCC(CRL-9096, Rockville, Md.) and transfected with two plasmids: pSV2dhfr (ATCC 37146), containing a gene for methotrexate (MTX) resistance, and pCMVβgal, which contains the lacZ cDNA. The transfection was conducted using LipofectAMINE™ Reagent, and selection was accomplished with 1.2 μM methotrexate (Sigma Chemical Co., St Louis, Mo.). Stock cultures were maintained in CHO-S-SFM II or CHO III Prototype supplemented with 0.3 μM MTX.
Unless indicated otherwise below, CHO cell culture conditions were as follows for the following Examples. 25-35 mL of CHO cells were cultured in 125 mL shake flasks in humidified air containing 5-10% carbon dioxide. The shake flasks were shaken on an orbital shaking platform at 125-135 rpm. Temperature was maintained at 37° C. Cells were subcultured every three to four days to a density of 2−3×10^5 cells/mL.

[3] = tested on: 293 human embryonic kidney cells; assay: Suspension culture of 293 cells: cell density and viability; assay type: cell-based; conditions: lower-protein media, transferrin replaced by iron chelate; FIG. 2
Method: Adenovirus type 5-transformed 293 human embryonic kidney epithelial cells were obtained from ATCC(CRL 1573), and were cultured as described in Example 4 by incubation at 37° C. in a humidified atmosphere consisting of 8% CO2/92% air.
Cultures of 293 cells in serum-supplemented media were weaned from serum by passage 2-3 times in OptiMEM medium (Life Technologies, Inc.; Rockville, Md.) supplemented with 2% normal horse serum in 165 cm^2 culture flasks. After the second or third passage, when cells reached 50-75% confluence, they were dislodged from the growth surfaces by gently rapping the flasks several times; trypsin or other proteolytic agents were not used, since such agents often cause irreversible damage to cells cultivated in low-serum or serum-free media. Cells were resuspended in the present culture media and triturated until aggregates dispersed into a single cell suspension, and cell concentration and viability was determined by trypan blue exclusion counting on a hemacytometer according to routine procedures.
Cells were then seeded into the present culture medium in Erlenmeyer flasks at a density of about 2.5−3.0×10^5 cells/ml. […] Cell densities and viabilities were determined at least every other day, and cells were subcultured when the density approached about 7.5−10.0×10^5 cells/ml by diluting cultures with fresh culture medium to a density of about 2.5−3.0×10^5 cells/ml. […]

Row | Compound | support of 293 cell growth compared with complete media [3] | level of rβ-gal expression versus CD CHO control (rβ-gal CHO cells [1]) | cell growth and viability versus CD CHO control (rβ-gal CHO cells [2]) | also measured
1 | CN(Cc1cnc2nc(N)nc(N)c2n1)c1ccc(C(=O)N[C@@H](CCC(=O)O)C(=O)O)cc1 [MTX, methotrexate, reference compound] |  |  |  | relation of concentration to rβ-galactosidase specific activity (rβ-gal CHO cells [1]; Example 9, CD CHO medium with increasing concentrations, FIG. 7B): proportional; relation of concentration to cell density (rβ-gal CHO cells [2]; Example 9, CD CHO medium with increasing concentrations, FIG. 7A): inversely proportional
2 | FeCl3-sodium citrate | performed equivalently to complete media |  |  | 
3 | FeSO4-EDTA | performed equivalently to complete media |  |  | 
4 | dextran sulfate [dextran sulfate (m.w. 5,000)] |  | an increase in the level of rβ-gal expression at days 5, 7, and 9 | increased cell growth and viability at days 5, 7, and 9 | 
5 | dextran sulfate [dextran sulfate (m.w. 500,000)] |  | did not display enhanced expression | increased cell growth and viability at days 5 and 7, but not at day 9 | 
